In patent US8445542B2, “Methods of accelerating muscle growth, decreasing fat deposits and improving feed efficiency in livestock animals” (Bridge Pharma, Inc., priority 2006, dated 2013):

Tests used:
[1] = tested on: Airway smooth muscle tissues; test: Airway smooth muscle contracted by carbachol; settings: ongoing studies
Excerpt: Airway smooth muscle tissues were contracted by carbachol. The inhibitory effects of isomers, enantiomeric pairs and a racemic mixture of ractopamine are being investigated.
Test results from these functional studies verify and support the results from the receptor binding studies.

adrenergic beta-receptor = test: Adrenergic beta-receptor stimulating activity of the isomers; settings: compared with RR-ractopamine; this document and Shappell et al, 2000
Excerpt: J. Anim. Sci. 2000, 78: 699-708, which publication is hereby included in its entirety by reference.)

[2] = tested on: adrenergic alpha-receptors; settings: isolated smooth and cardiac muscle tissues of rat and guinea pig; Colbert et al. 1991; cited from earlier work
mice [3] = test: Stress testing in mice, methodology of Aberg (U.S. Pat. No. 6,372,799)
livestock animals = settings: Marchant-Forde et al., cited from earlier work; for tachycardia in livestock animals: 2003 and London et al. 2005
[4] = tested on: adrenergic beta-receptors in adipose tissue; settings: animals exposed to the drug; Spurlock et al. 1994; cited from earlier work
[5] = molecular target: adrenergic beta-3 receptors (Homo sapiens, UniProt P13945); test: Receptor binding, beta-3 (present studies)
beta-3 receptors = beta-3 receptors (Homo sapiens, UniProt P13945); settings: background statement; cited from earlier work
laboratory animals = test: Neuropharmacological profile (Irwin test), repeated oral administration
mice [6] = test: Spontaneous motor activity in mice (part of Irwin tests); format: in vivo; settings: oral
[7] = molecular target: porcine adrenergic β-2 receptors (Sus scrofa, UniProt Q28997); settings: Mills et al., 2003; cited from earlier work
[8] = molecular target: adrenergic beta-1 receptors (Homo sapiens, UniProt P08588); test: Receptor binding studies, beta-1
Excerpt: Interesting and important advantages of receptor selectivity by RR-ractopamine were found.

Chain of beta-3 receptors (P13945 whole entry): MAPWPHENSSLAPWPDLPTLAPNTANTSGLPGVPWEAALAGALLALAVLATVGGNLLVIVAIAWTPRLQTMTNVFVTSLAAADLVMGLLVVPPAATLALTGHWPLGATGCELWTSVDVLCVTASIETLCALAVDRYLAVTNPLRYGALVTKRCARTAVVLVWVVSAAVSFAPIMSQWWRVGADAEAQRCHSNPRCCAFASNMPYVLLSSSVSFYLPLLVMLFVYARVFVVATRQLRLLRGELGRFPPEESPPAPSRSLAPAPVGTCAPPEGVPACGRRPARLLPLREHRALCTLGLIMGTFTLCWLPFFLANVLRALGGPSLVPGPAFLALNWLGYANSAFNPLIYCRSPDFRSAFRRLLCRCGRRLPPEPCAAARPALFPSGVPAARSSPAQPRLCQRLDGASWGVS
Chain of adrenergic beta-3 receptors (P13945 whole entry): as above
Chain of porcine adrenergic β-2 receptors (Q28997 whole entry): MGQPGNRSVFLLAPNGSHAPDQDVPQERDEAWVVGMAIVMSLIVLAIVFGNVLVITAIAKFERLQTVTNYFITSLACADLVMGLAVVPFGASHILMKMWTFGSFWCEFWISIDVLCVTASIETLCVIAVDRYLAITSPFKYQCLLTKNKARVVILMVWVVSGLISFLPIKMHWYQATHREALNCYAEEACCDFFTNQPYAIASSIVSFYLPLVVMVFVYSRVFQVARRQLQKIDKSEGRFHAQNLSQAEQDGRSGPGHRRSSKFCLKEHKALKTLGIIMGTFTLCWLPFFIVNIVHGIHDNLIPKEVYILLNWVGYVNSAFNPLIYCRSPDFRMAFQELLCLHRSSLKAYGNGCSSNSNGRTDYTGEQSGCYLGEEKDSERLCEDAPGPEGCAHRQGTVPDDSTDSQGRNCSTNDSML
Chain of adrenergic beta-1 receptors (P08588 whole entry): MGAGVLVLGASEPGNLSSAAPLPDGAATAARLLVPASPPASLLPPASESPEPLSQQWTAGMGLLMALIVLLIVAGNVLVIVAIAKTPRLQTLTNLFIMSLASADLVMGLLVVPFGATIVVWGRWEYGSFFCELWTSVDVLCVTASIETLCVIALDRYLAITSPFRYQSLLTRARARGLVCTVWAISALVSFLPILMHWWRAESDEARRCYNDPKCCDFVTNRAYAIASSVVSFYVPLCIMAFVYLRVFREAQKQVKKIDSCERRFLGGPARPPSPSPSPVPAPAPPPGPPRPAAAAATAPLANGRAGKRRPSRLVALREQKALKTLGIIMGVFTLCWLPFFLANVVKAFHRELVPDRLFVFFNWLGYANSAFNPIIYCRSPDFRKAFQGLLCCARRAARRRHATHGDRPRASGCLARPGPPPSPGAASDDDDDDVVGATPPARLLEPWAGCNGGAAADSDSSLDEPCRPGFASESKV

## C[C@@H](CCc1ccc(O)cc1)NC[C@@H](O)c1ccc(O)cc1 (racemic) [SS-ractopamine]
[1]
  airway smooth muscle relaxing activity: very weak activity
Adrenergic beta-receptor
  adrenergic beta-receptor stimulating activity: completely devoid of adrenergic beta-receptor stimulating activity

## CC(CCc1ccc(O)cc1)NCC(O)c1ccc(O)cc1.Cl (racemic) [racemic ractopamine, 4-hydroxy-a-[[[3-(4-hydroxyphenyl)-1-methylpropyl]amino]methyl]benzenemethanol hydrochloride]
[2]
  effect on adrenergic alpha-receptors: no significant effect
Mice [3]; mice, ongoing testing
  CNS-mediated stress: demonstrate CNS-mediated stress
Livestock animals; 2003
  CNS-mediated stress in livestock animals: cause CNS-mediated stress
Livestock animals
  tachycardia in livestock animals: significant tachycardia
[4]
  reduction of the concentration of adrenergic beta-receptors in adipose tissue: 50%
[5]
  affinity for adrenergic beta-3 receptors: neither racemic ractopamine nor any of the ractopamine isomers had affinity
beta-3 receptors
  affinity for beta-3 receptors: negligible affinity
Laboratory animals; repeated oral administration
  stress in Irwin test: produced increased stress

## CC(C)(C)NC[C@H](O)c1ccc(O)c(CO)c1 [R-salbutamol]
Livestock animals
  tachycardia in livestock animals: not causing tachycardia
Laboratory animals; repeated oral administration
  stress in Irwin test: no stress

## CC(CCc1ccc(O)cc1)NCC(O)c1ccc(O)cc1 (centres unmarked) [RS]
Adrenergic beta-receptor
  adrenergic beta-receptor stimulating activity: reduced beta-receptor activity

## CC(C)(C)NCC(O)c1ccc(O)c(CO)c1 (centres unmarked) [salbutamol]
beta-3 receptors
  affinity for beta-3 receptors: negligible affinity

## RR-4-hydroxy-a-[[[3-(4-hydroxyphenyl)-1-methylpropyl]amino]methyl]benzenemethanol [RR-ractopamine]
Mice [3]; mouse, in vivo
  CNS-mediated stress: not causing stress
Mice [6]
  effect on spontaneous motor activity: no statistically significant effects
Optical stability
  optical stability: optically stable
[7]
  binding affinity relative to the racemic mixture of all four isomers: about 2.5 times
[8]
  affinity for adrenergic beta-1 receptors compared with the racemic mixture of all four isomers: higher affinity
Laboratory animals; mouse, in vivo, po
  stress in Irwin test: did not cause stress
